For one test, the system named is A2.1/K^b-Tg mice. Put plainly: Peptide priming of A2.1/K^b-Tg mice, lytic activity of peptide-specific CTL. Format: in vivo.
The next test concerns the target HLA-A2.1 (Homo sapiens, UniProt P04439, D140Y/D185E/D98H/E176V/E277Q/G131W/G231S/I119V/I121R/I166T/I218V/L300P/L318F/N151K/N90K/P208A/P217A/Q86G/Q94H/R138H/R169H/T345S). The experiment in a line: Competition assay for peptide binding to HLA-A2.1 (inhibition of A clone 12 lysis of M1-pulsed EA2 targets).
In test [1] the test system is A2.1/K^b×CD8 or A2.1 transgenic (Tg) mice. Put plainly: Immunization of transgenic mice with Her-2/neu peptides, cytotoxicity against peptide-pulsed T2-A2.1/K^b. In kind it is in vivo. The following applies: A2.1/K^b×CD8 or A2.1 Tg mice.
Method: A2.1/K^b×CD8 and/or A2.1 transgenic mice were immunized with each of the peptides listed in Table 6 to determine if they could stimulate A2.1-restricted CTL. Mice were immunized with a mixture of 100 mg of the Her-2/neu peptide with 120 mg “helper” peptide in 100 ml Incomplete Freund's Adjuvant (IFA).
A2.1/K^b×CD8 or A2.1 lipopolysaccharide (LPS) -blasts were prepared as stimulators for in vitro restimulation of spleen cells from immunized mice. These were prepared by incubating splenocytes from A2/K^b or A2.1 mice in complete RPMI containing 25 mg/ml LPS and 7 mg/ml dextran sulfate at 1.5×10^6 cells/ml in a total volume of 30 ml for 3 days. […] Six days following in vitro restimulation, the CTL populations were assayed for lytic activity against T2-A2/K^b target cells preincubated with the peptide used for stimulation (15 mM). The resultant Her-2/neu peptide-specific CTL populations were maintained in vitro by weekly restimulation. […]
Spleen cells from injected animals were restimulated in vitro with irradiated syngeneic cells pulsed with the peptide used for in vivo priming. Immunogenicity was evaluated by assaying these cultured cells for cytotoxicity against T2-A2.1/K^b target cells pulsed with the priming peptide. […]
Another test deals with T98G. Put plainly: Cytotoxicity assay, lysis of human tumors by H3 and H7 specific CTL. Format: cell-based. As for the experimental part:
(§1) […] target cells were incubated at 37° C. with […] of sodium ^51Cr chromate for 90 minutes in the presence or absence of specific peptide. Cells were washed three times and resuspended in 5% RPMI. For the assay, […] ^51Cr-labeled target cells were incubated with different concentrations of effector cells in a final volume of […] in U-bottomed 96-well plates. Supernatants were removed after 4-7 hrs at 37° C., and the percent specific lysis was determined by the following formula: [formula]
(§2) Tumor cells were preincubated for 24 hours prior to the assay in media supplemented with γ-interferon (γ-IFN, 20 ng/ml) plus tumor necrosis factor-α (TNF-α, 3 ng/ml). It is known that such pretreatment of tumor cells increases the expression of MHC I and adhesion molecules such as ICAM I on the surface of the cell thus enhancing their sensitivity to lysis by CTL. (See, e.g., Fisk, et al., Lympho. & Cytokine Res. 13: 125-131 (1994); Fady, et al., Cancer Immunol. Immunother. 37: 329-336 (1993).)

In another test the test system is U2-OS. Described as above. In kind it is cell-based. As for the experimental part: as §1, §2
Another test has as its system SAOS.175. The test is described as above. In kind it is cell-based. As for the experimental part:
as §1, §2

In the next test the test system is OVCAR-5. The test is described as above. Format: cell-based. As for the experimental part:
as §1, §2

The test system of a further test is SKMEL-5. Described as above. In kind it is cell-based. As for the experimental part: as §1, §2
In another test the test system is LG-2. The test is described as above. Format: cell-based. As for the experimental part:
as §1, §2

The next test has as its system SV80. The description is as above. Format: cell-based. As for the experimental part: as §1, §2
For the next test, the system named is ST486. The test is described as above. In kind it is cell-based. As for the experimental part: as §1, §2
The subject of a further test is CASKI. The description is as above. In kind it is cell-based. As for the experimental part: as §1, §2
In the next test the test system is JY. Described as above. Details: scale not given here. In kind it is cell-based. As for the experimental part: as §1, §2
The next test concerns MALME-3M. The description is as above. Format: cell-based. More on the design: scale not given here. As for the experimental part: as §1, §2
For the next test, the system named is MDA.MB435. Described as above. Format: cell-based. Details: scale not given here. As for the experimental part:
as §1, §2

Setting [2] is: E:T 60:1, T2A2/K^b targets pulsed with two mg of peptide, highest of at least three individual mice.
Setting [3] is: peptide-priming of A2.1/K^b-Tg mice.

Several values for one entry are separate records, joined by “and”; a condition that tells them apart may be missing. Identical values can stand only once. Like-named read-outs stand apart in the source and are kept apart here.

The text below walks through data of US20030022820A1, “IN VIVO ACTIVATION OF TUMOR-SPECIFIC CYTOTOXIC T CELLS” (priority 1995, published 2003).

In the case of AAPPVAPA [hu-wt-p53: 69-76], the “Lytic Activity by Peptide-Specific CTL After Priming of A2.1/K^b-Tg Mice [Specific 51Cr release (%)]” value (shortened to “Lytic Activity … [Specific 51Cr release (%)]”) in the test with A2.1/K^b-Tg mice (mouse, in vivo) was 0%.

As for AAPPVAPAPA [hu-wt-p53: 69-78], the “Lytic Activity … [Specific 51Cr release (%)]” value in the test on A2.1/K^b-Tg mice (setting [2]) stood at 0%.

AAPPVAPAPAA [hu-wt-p53: 69-79]: the “Lytic Activity … [Specific 51Cr release (%)]” value in the test with A2.1/K^b-Tg mice (setting [2]) worked out at 0%.

Regarding AAPTPAAPA [hu-wt-p53: 78-86], in the test on A2.1/K^b-Tg mice (setting [2]), the “Lytic Activity … [Specific 51Cr release (%)]” value was 0%.

Take “ASNENMETM [Flu NP 1934: 366-374, reference compound]”: the “(%) [inhibition of A2.1-binding of M1 (58-66)]” value on HLA-A2.1 amounted to 4%.

As to DLMLSPDDI [hu-wt-p53: 42-50], the “Lytic Activity … [Specific 51Cr release (%)]” value with A2.1/K^b-Tg mice (setting [2]) was determined as 0%.

Regarding GLAPPQHLI [hu-wt-p53: 187-195], the “A2.1-binding activity / affinity, in words” value with HLA-A2.1 was “high”. The “Lytic Activity … [Specific 51Cr release (%)]” value in the test on A2.1/K^b-Tg mice (setting [2]) is recorded as 1%. Further, the “A2.1/K^b-restricted peptide-specific CTL response, in words” value with A2.1/K^b-Tg mice (setting [3]) is on record as “lack of CTL responsiveness”.

On to IISAVVGIL [Peptide H11], for which, in [1], the “ability to stimulate a CTL response in Tg mice, in words” value was “could not elicit a response”.

Turning to “ILKEPVHGV [HIV-1 RT: 476-484, reference compound]”, at HLA-A2.1, the “(%) [inhibition of A2.1-binding of M1 (58-66)]” value is listed as 72%. In the test with A2.1/K^b-Tg mice (mouse, in vivo), the “A2.1/K^b-restricted peptide-specific CTL response, in words” value is “could mount an A2.1/K^b-restricted CTL response” and the “Lytic Activity … [Specific 51Cr release (%)]” value came to 85%.

On to ITLEDSSGNL [hu-wt-p53: 255-264], for which the “A2.1-binding activity / affinity, in words” value with HLA-A2.1 is given as “intermediate”. The “Lytic Activity … [Specific 51Cr release (%)]” value with A2.1/K^b-Tg mice (setting [2]) was determined as 3%. In addition, in the test with A2.1/K^b-Tg mice (setting [3]), the “A2.1/K^b-restricted peptide-specific CTL response, in words” value is given as “lack of CTL responsiveness”.

Take KLVGKLNWA [HIV-9K, reference compound]: the “Killing of Tumors Expressing Her-2/neu” value in the test with T98G was 9 and 13; with U2-OS, 18 and 24; in the test with SAOS.175, 18 and 11; in the test on OVCAR-5, 10 and 12; with SKMEL-5 it was 5 and 4; in the test with LG-2, 1. Moreover, the “Killing of Tumors Expressing Her-2/neu” value in the test on SV80 is 2; in the test on ST486, 1; in the test with CASKI, 8 and 11; in the test with JY it was 2 and 1; in the test on MALME-3M it was 2 and 1; with MDA.MB435 it was 4 and 3.

With LLGRDSFEV [mur-wt-p53: 261-269], the “A2.1-binding activity / affinity, in words” value in the test with HLA-A2.1 (competition with M1 (58-66)) was “highest A2.1-binding activity of all p53 peptides tested”. Moreover, the “Lytic Activity … [Specific 51Cr release (%)]” value with A2.1/K^b-Tg mice (setting [2]) came out at 10%. Further, the “A2.1/K^b-restricted peptide-specific CTL response, in words” value in the test on A2.1/K^b-Tg mice (setting [3]) is “No significant response”.

With LLPENNVLS [hu-wt-p53: 25-33], in the test with A2.1/K^b-Tg mice (setting [2]), the “Lytic Activity … [Specific 51Cr release (%)]” value was 3%.

Turning to LLPENNVLSPL [hu-wt-p53: 25-35], the “A2.1-binding activity / affinity, in words” value in the test with HLA-A2.1 was “high affinity”. Also, the “Lytic Activity … [Specific 51Cr release (%)]” value with A2.1/K^b-Tg mice (setting [2]) is given as 47%. Also, the “A2.1/K^b-restricted peptide-specific CTL response, in words” value in the test on A2.1/K^b-Tg mice (setting [3]) was “detectable”.

Turning to LMLSPDDIEQ [hu-wt-p53: 43-52], the “Lytic Activity … [Specific 51Cr release (%)]” value in the test with A2.1/K^b-Tg mice (setting [2]) was 3%.

Turning to NLLGRNSFEV [hu-wt-p53: 263-272], the “Lytic Activity … [Specific 51Cr release (%)]” value in the test with A2.1/K^b-Tg mice (setting [2]) was determined as 3%.

As to NTFRHSVVV [hu-wt-p53: 210-218], in the test on A2.1/K^b-Tg mice (setting [2]), the “Lytic Activity … [Specific 51Cr release (%)]” value worked out at 6%.

On to PLDGEYFTL [hu-wt-p53: 322-330], for which, in the test with HLA-A2.1, the “A2.1-binding activity / affinity, in words” value is recorded as “intermediate”. Moreover, the “Lytic Activity … [Specific 51Cr release (%)]” value with A2.1/K^b-Tg mice (setting [2]) was 0%. In the test with A2.1/K^b-Tg mice (setting [3]), the “A2.1/K^b-restricted peptide-specific CTL response, in words” value is “lack of CTL responsiveness”.

Take “RGYVYQGL [VSV-N: 52-59, reference compound]”: the “(%) [inhibition of A2.1-binding of M1 (58-66)]” value at HLA-A2.1 stood at 4%.

For RMPEAAPPV [hu-wt-p53: 65-73], the “A2.1-binding activity / affinity, in words” value with HLA-A2.1 is “high affinity”. In addition, the “Lytic Activity … [Specific 51Cr release (%)]” value in the test on A2.1/K^b-Tg mice (setting [2]) is recorded as 85%. Besides, the “A2.1/K^b-restricted peptide-specific CTL response, in words” value in the test with A2.1/K^b-Tg mice (setting [3]) was “detectable”.

With STPPPGTRV [hu-wt-p53: 149-157], the “A2.1-binding activity / affinity, in words” value in the test with HLA-A2.1 is on record as “intermediate affinity”. For the same sequence, in the test with A2.1/K^b-Tg mice (mouse, in vivo), the “A2.1/K^b-restricted peptide-specific CTL response, in words” value is recorded as “detectable” and the “Lytic Activity … [Specific 51Cr release (%)]” value amounted to 91%.

With VAPAPAAPT [hu-wt-p53: 73-81], the “Lytic Activity … [Specific 51Cr release (%)]” value in the test on A2.1/K^b-Tg mice (setting [2]) is 0%.

With VLSPLPSQA [hu-wt-p53: 31-39], the “Lytic Activity … [Specific 51Cr release (%)]” value in the test with A2.1/K^b-Tg mice (setting [2]) is listed as 3%.

Consider VLSPLPSQAM [hu-wt-p53: 31-40], for which the “Lytic Activity … [Specific 51Cr release (%)]” value in the test with A2.1/K^b-Tg mice (setting [2]) is 0%.
